# Data from ChEMBL document CHEMBL5726728, “T-type calcium channel modulator and uses thereof” (2019).
# pKi: −log10 of the molar value.
# Tests used:
# Cannabinoid receptor 1 = Cannabinoid receptor 1 (Rattus norvegicus, UniProt P20272); test: (§1) As used herein, the term T-type calcium channel blocker refers to a compound that can modulate, in particular inhibit or reduce activation of T-type calcium channels. […] The term about refers to ±20%, typically ±10%, and often ±5% of the numeric value.
# Cannabinoid receptor 2 = Cannabinoid receptor 2 (Homo sapiens, UniProt P34972); test: as §1
# Cannabinoid receptor 2, sequence (P34972 whole entry): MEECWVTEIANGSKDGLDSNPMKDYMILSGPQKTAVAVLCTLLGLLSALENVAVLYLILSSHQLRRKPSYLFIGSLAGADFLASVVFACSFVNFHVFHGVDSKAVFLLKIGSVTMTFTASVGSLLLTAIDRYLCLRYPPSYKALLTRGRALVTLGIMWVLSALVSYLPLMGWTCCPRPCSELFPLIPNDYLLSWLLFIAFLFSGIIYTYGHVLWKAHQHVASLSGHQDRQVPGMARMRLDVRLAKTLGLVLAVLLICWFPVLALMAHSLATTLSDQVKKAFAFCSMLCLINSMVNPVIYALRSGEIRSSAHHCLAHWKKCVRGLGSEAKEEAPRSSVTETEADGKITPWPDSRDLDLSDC
# Cannabinoid receptor 1, sequence (P20272 whole entry): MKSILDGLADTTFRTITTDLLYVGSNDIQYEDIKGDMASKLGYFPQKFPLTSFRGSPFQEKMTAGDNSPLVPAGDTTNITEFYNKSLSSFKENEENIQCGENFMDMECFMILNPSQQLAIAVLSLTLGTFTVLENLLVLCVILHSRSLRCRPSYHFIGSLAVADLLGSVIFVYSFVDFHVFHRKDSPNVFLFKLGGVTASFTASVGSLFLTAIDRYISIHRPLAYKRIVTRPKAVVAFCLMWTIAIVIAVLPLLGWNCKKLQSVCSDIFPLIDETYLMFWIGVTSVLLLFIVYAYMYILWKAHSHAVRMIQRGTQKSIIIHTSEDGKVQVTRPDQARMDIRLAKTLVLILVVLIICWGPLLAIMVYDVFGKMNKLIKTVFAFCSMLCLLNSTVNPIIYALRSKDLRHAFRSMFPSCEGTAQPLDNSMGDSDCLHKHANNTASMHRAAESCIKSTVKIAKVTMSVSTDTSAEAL
smiles,measurement,setting,value
CCCCCn1c2ccccc2c2cc(C(=O)N3CCN(CC(=O)NC(C)(C)C)CC3)ccc21,pKi,Cannabinoid receptor 1,7.82
same,pKi,Cannabinoid receptor 2,5.71
